Measurements as given in US20160318866A1, “SUBSTITUTED BIPIPERIDINYL DERIVATIVES” (Bayer Pharma Aktiengesellschaft, priority 2013, published 2016).
Structures can show the parent of a compound that is named as a salt.

Assays:
[1] = test system: diabetic (ZDFfa/fa) and healthy rats (Wistar); experiment: Assay of perfusion-enhancing substances (microcirculation), laser doppler at the paw; format: in vivo, rat; conditions: single oral dose
Excerpt: In diabetic (ZDFfa/fa) and healthy rats (Wistar), a laser doppler probe was fastened under anaesthesia conditions (isoflurane anaesthesia) at the sole of the paw for measuring cutaneous microcirculation. The test animals were once treated orally with the test substances. During the experiment, microperfusion and temperature of the lower extremities were documented continuously. Here, a temperature-sensitive laser doppler probe (Periflux, O2C) was fastened with adhesive to the paws of the animals, allowing the measurement of microperfusion and skin temperature. The microcirculation measurement values were measured on both paws 30 min after oral administration of the test substance. […] Also stated is the MED for the significant increase of skin temperature (ttest).

[2] = test system: adult female Wistar rats; experiment: Radiotelemetric measurement of blood pressure and heart rate of conscious rats; format: in vivo, rat; conditions: 10 mg/kg, oral, telemetry over 24 hours
Excerpt: A commercially available telemetry system from Data Sciences International DSI, USA, was employed for the measurements on conscious rats described below. The system consists of 3 main components: (1) implantable transmitters (Physiotel® telemetry transmitter), (2) receivers (Physiotel® receiver), which are linked via a multiplexer (DSI Data Exchange Matrix) to a (3) data acquisition computer. The telemetry system makes it possible to continuously record blood pressure, heart rate and body motion of conscious animals in their usual habitat.
The studies were conducted on adult female Wistar rats with a body weight of >200 g. After transmitter implantation, the experimental animals were housed singly in type III Makrolon® cages. They had free access to standard feed and water. The day/night rhythm in the test laboratory was set by changing the illumination of the room.
The telemetry transmitters used (PA-C40, DSI) were surgically implanted under aseptic conditions in the experimental animals at least 14 days before the first experimental use.
For the implantation, the fasted animals were anaesthetized with isoflurane (IsoFlo®, Abbott, initiation 5%, maintenance 2%) and shaved and disinfected over a large area of their abdomens. […]
Each of the instrumented rats living in the system was assigned a separate receiving antenna (RPC-1 Receiver, DSI). […] The signals emitted were detected online by a data acquisition system (Dataquest™ A.R.T. for Windows, DSI) and processed accordingly.
In the standard procedure, the following were measured for 10-second periods in each case: (1) systolic blood pressure (SBP), (2) diastolic blood pressure (DBP), (3) mean arterial pressure (MAP), (4) heart rate (HR) and (5) activity (ACT). These parameters were measured over 24 hours after administration.
The acquisition of measurements was repeated under computer control at 5-minute intervals. The source data obtained as absolute values were corrected in the diagram with the currently measured barometric pressure (Ambient Pressure Reference Monitor, APR-1, DSI). […]

[3] = biological target: T1, human α2C receptor (Homo sapiens, UniProt P18825); experiment: Antagonism against the adrenoreceptor α2C (luminescence, recombinant CHO cell line); format: cell-based; conditions: antagonism against adrenoreceptor α2C; noradrenaline 20 nM; tested up to 10 μM; read-out: IC50
T1 construct: expressed in transfected cells; host or cells: CHO cells, also recombinantly expressing chimeric G protein Gαqi3 and mitochondrial obelin (mtOb)
T1 sequence (P18825 1-462): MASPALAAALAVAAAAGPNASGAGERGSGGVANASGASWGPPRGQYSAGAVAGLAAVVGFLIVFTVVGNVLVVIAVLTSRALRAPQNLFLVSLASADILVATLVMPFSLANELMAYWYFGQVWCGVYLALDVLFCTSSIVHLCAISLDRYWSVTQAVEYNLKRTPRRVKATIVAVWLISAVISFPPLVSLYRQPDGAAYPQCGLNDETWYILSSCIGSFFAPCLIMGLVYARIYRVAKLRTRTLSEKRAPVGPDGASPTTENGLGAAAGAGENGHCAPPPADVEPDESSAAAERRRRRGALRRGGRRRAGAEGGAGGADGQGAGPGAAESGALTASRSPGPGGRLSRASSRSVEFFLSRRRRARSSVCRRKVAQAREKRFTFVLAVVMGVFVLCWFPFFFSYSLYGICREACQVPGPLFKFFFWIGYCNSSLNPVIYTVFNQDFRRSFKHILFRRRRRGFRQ
Summary of the method: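 CHO cells expressing human α2C receptor with chimeric Gαqi3 and mitochondrial obelin, loaded with 2.5 μg/ml coelenterazine for one day at 30 °C.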

SMILES | IC50 [3] [nM] | other results
COC[C@@]1(C)CCCN2CCc3c(oc4ccccc34)[C@@H]21 [ORM-12741, reference compound] |  | factor by which microcirculation is improved at this dose compared to placebo ([1]; at the MED, 30 min after administration): 1.9 x; MED [mg/kg] skin temperature ([1]; minimum effective dose for significant increase of skin temperature (ttest)): 0.01 mg/kg; MED [mg/kg] microcirculation ([1]; minimum effective dose for significantly improved microcirculation vs placebo, 30 min after administration): 0.1 mg/kg; blood pressure [2]: additional reduction in blood pressure
CCOCc1ccc(C(=O)N2CCC(N3CCCC(C)C3)CC2)cc1 (centres unmarked) [Example 13, [4-(Ethoxymethyl)phenyl](3-methyl-1,4′-bipiperidin-1′-yl)methanone] | 267 | 
CCCCN(C)C(=O)c1ccc(C(=O)N2CCC(N3CCCC(C)C3)CC2)cc1 (centres unmarked) [Example 35, N-Butyl-N-methyl-4-[(3-methyl-1,4′-bipiperidin-1′-yl)carbonyl]benzamide] | 124 | 
COCC1CCCN(C2CCN(C(=O)c3ccc(C(=O)NCc4ncc(F)cc4F)cc3)CC2)C1 (centres unmarked) [Example 97, N-[(3,5-Difluoropyridin-2-yl)methyl]-4-{[3-(methoxymethyl)-1,4′-bipiperidin-1′-yl]carbonyl}benzamide trifluoroacetic acid salt] | 10 | 
CC1CCCN(C2CCN(C(=O)c3ccc(C(=O)NC(C)(C)C)cc3F)CC2)C1 (centres unmarked) [Example 102, N-tert-Butyl-3-fluoro-4-[(3-methyl-1,4′-bipiperidin-1′-yl)carbonyl]benzamide hydrochloride] | 67 | 
CC1CCCN(C2CCN(C(=O)c3ccc(CC4(C)COC4)cc3)CC2)C1 (centres unmarked) [Example 23, (3-Methyl-1,4′-bipiperidin-1′-yl){4-[(3-methyloxetan-3-yl)methyl]phenyl}methanone] | 136 | 
CC1CCCN(C2CCN(C(=O)c3ccc(C(=O)NC(C)(C)c4cccc(Cl)c4)cc3)CC2)C1 (centres unmarked) [Example 79, N-[2-(3-Chlorophenyl)propan-2-yl]-4-[(3-methyl-1,4′-bipiperidin-1′-yl)carbonyl]benzamide trifluoroacetic acid salt] | 54 | 
CCOCC1CCCN(C2CCN(C(=O)c3ccc(C(C)(C)O)cc3)CC2)C1 (centres unmarked) [Example 120, [3-(Ethoxymethyl)-1,4′-bipiperidin-1′-yl][4-(2-hydroxypropan-2-yl)phenyl]methanone] | 10 | 
CC(C)(O)c1ccc(C(=O)N2CCC(N3CCCC(COC4CCC4)C3)CC2)cc1 (single isomer, unassigned; enantiomer 2) [Example 117, {3-[(Cyclobutyloxy)methyl]-1,4′-bipiperidin-1′-yl}[4-(2-hydroxypropan-2-yl)phenyl]methanone (enantiomer 2)] | 5 | 
CCN(CCOC)C(=O)c1ccc(C(=O)N2CCC(N3CCCC(C)C3)CC2)cc1 (centres unmarked) [Example 37, 1-(1-{4-[Ethyl-(2-methoxyethyl)carbamoyl]benzoyl}piperidin-4-yl)-3-methylpiperidine trifluoroacetic acid salt] | 406 | 
CCC1CCCN(C2CCN(C(=O)c3ccc(C(C)(C)O)cc3)CC2)C1 (centres unmarked) [Example 114, [3-Ethyl-1,4′-bipiperidin-1′-yl][4-(2-hydroxypropan-2-yl)phenyl]methanone] | 72 | 
